# Data reported in patent US8748348B2, “3-(3,4-dihydro-2H-benzo [1,4]oxazin-6-yl)-1H-pyrimidin-2,4-dione compounds as herbicides” (BASF SE, priority 2009, dated 2014).
# Assays:
# [1] = test system: SETVI; assay: greenhouse post-emergence herbicidal test; format: in vivo, Setaria viridis; details: scale from 0 to 100
# Excerpt: (§1) The culture containers used were plastic flowerpots containing loamy sand with approximately 3.0% of humus as the substrate. The seeds of the test plants were sown separately for each species.
# (§2) For the post-emergence treatment, the test plants were first grown to a height of 3 to 15 cm, depending on the plant habit, and only then treated with the active ingredients which had been suspended or emulsified in water. For this purpose, the test plants were either sown directly and grown in the same containers, or they were first grown separately as seedlings and transplanted into the test containers a few days prior to treatment.
# (§3) Depending on the species, the plants were kept at 10-25° C. or 20-35° C. The test period extended over 2 to 4 weeks. During this time, the plants were tended, and their response to the individual treatments was evaluated.
# (§4) Evaluation was carried out using a scale from 0 to 100. 100 means no emergence of the plants, or complete destruction of at least the aerial moieties, and 0 means no damage, or normal course of growth. A good herbicidal activity is given at values of at least 70 and a very good herbicidal activity is given at values of at least 85.
# [2] = test system: ERICA; assay: greenhouse post-emergence herbicidal test; format: in vivo, Erigeron canadensis; details: scale from 0 to 100
# Excerpt: as §1, §2, §3, §4
# [3] = test system: BRAPL; assay: greenhouse post-emergence herbicidal test; format: in vivo, Brachiaria plantaginea; details: scale from 0 to 100
# Excerpt: as §1, §2, §3, §4
# [4] = test system: COMBE; assay: greenhouse post-emergence herbicidal test; format: in vivo, Commenline benghalensis; details: scale from 0 to 100
# Excerpt: as §1, §2, §3, §4
# [5] = test system: BRADE; assay: greenhouse post-emergence herbicidal test; format: in vivo, Brachiaria deflexa; details: scale from 0 to 100
# Excerpt: as §1, §2, §3, §4
# [6] = test system: Pharbitis purpurea; assay: greenhouse pre-emergence herbicidal test; format: in vivo; details: application rate 0.025 kg/ha, eight days after treatment (greenhouse)
# Excerpt: as §1
# (§5) For the pre-emergence treatment, the active ingredients, which had been suspended or emulsified in water, were applied directly after sowing by means of finely distributing nozzles. The containers were irrigated gently to promote germination and growth and subsequently covered with transparent plastic hoods until the plants had rooted. This cover caused uniform germination of the test plants, unless this has been impaired by the active ingredients.
# as §3, §4
# [7] = test system: Setaria faberi; assay: greenhouse pre-emergence herbicidal test; format: in vivo; details: application rate 0.025 kg/ha, eight days after treatment (greenhouse)
# Excerpt: as §1, §5, §3, §4
# [8] = test system: DIGSA; assay: greenhouse post-emergence herbicidal test; format: in vivo, Digitaria sanguinales; details: scale from 0 to 100
# Excerpt: as §1, §2, §3, §4
# [9] = test system: ELEIN; assay: greenhouse post-emergence herbicidal test; format: in vivo, Eleusine indica; details: scale from 0 to 100
# Excerpt: as §1, §2, §3, §4
# [10] = test system: Abutilon theophrasti; assay: greenhouse post-emergence herbicidal test; format: in vivo; details: post-emergence method, application rate 6.25 g/ha
# Excerpt: as §1, §2, §3, §4
# [11] = test system: Amaranthus retroflexus; assay: greenhouse post-emergence herbicidal test; format: in vivo; details: post-emergence method, application rate 6.25 g/ha
# Excerpt: as §1, §2, §3, §4
# [12] = test system: Chenopodium album; assay: greenhouse post-emergence herbicidal test; format: in vivo; details: post-emergence method, application rate 6.25 g/ha
# Excerpt: as §1, §2, §3, §4
# [13] = test system: Pharbitis purpurea; assay: greenhouse post-emergence herbicidal test; format: in vivo; details: post-emergence method, application rate 6.25 g/ha
# Excerpt: as §1, §2, §3, §4
# [14] = test system: Amaranthus retroflexus; assay: greenhouse pre-emergence herbicidal test; format: in vivo; details: pre-emergence method, application rate 6.25 g/ha
# Excerpt: as §1, §5, §3, §4
# [15] = test system: Erigeron Canadensis; assay: greenhouse pre-emergence herbicidal test; format: in vivo; details: pre-emergence method, application rate 6.25 g/ha
# Excerpt: as §1, §5, §3, §4
# [16] = test system: Solanum nigrum; assay: greenhouse pre-emergence herbicidal test; format: in vivo; details: pre-emergence method, application rate 6.25 g/ha
# Excerpt: as §1, §5, §3, §4
smiles,measurement,setting,value
"CC(C)N(C)S(=O)(=O)NC(=O)c1cc(-n2c(=O)cc(C(F)(F)F)n(C)c2=O)c(F)cc1Cl [B.76, saflufenacil]",herbicidal activity against SETVI found,[1]; B.76 1.56 g/ha a.s.,0
same,herbicidal activity against ERICA found,[2]; B.76 1.56 g/ha a.s.,45
"CCNc1nc(Cl)nc(NC(C)C)n1 [B.54, atrazine, reference compound]",herbicidal activity against BRAPL found,[3]; B.54 250 g/ha a.s.,20
same,herbicidal activity against COMBE found,[4]; B.54 250 g/ha a.s.,70
"Cc1c(C(=O)c2cnn(C)c2O)ccc(S(C)(=O)=O)c1C1=NOCC1 [B.93, topramezone, reference compound]",herbicidal activity against BRADE found,[5]; B.93 3.1 g/ha a.s.,65
"C#CCN1C(=O)COc2cc(F)c(-n3c(=O)cc(C(F)(F)F)n(C)c3=O)cc21 [example 39, reference compound]","damages, unwanted plants Pharbitis purpurea",[6],80
same,"damages, unwanted plants Setaria faberi",[7],90
"Cn1nc(C(F)(F)F)c(CS(=O)(=O)C2=NOC(C)(C)C2)c1OC(F)F [B.118, pyroxasulfone, reference compound]",herbicidal activity against DIGSA found,[8]; B.118 12.5 g/ha a.s.,35
"CC(C)N.O=C(O)CNCP(=O)(O)O [B.98, glyphosate-isopropylammonium]",herbicidal activity against ELEIN found,[9]; B.98 135 g/ha a.s.,60
same,herbicidal activity against SETVI found,[1]; B.98 68 g/ha a.s.,90
same,herbicidal activity against ERICA found,[2]; B.98 68 g/ha a.s.,80
"C#CCN1C(=O)C(F)(F)Oc2cc(F)c(-n3c(=O)cc(C(F)(F)F)n(C)c3=O)cc21 [Ia48, 1-Methyl-6-trifluoromethyl-3-(2,2,7-trifluoro-3-oxo-4-prop-2-ynyl-3,4-dihydro-2H-benzo[1,4]oxazin-6-yl)-1H-pyrimidine-2,4-dione]",herbicidal activity against Abutilon theophrasti,[10],very good herbicidal activity (a very good herbicidal activity is given at values of at least 85)
same,herbicidal activity against Amaranthus retroflexus,[11],very good herbicidal activity (a very good herbicidal activity is given at values of at least 85)
same,herbicidal activity against Chenopodium album,[12],very good herbicidal activity (a very good herbicidal activity is given at values of at least 85)
same,herbicidal activity against Pharbitis purpurea,[13],very good herbicidal activity (a very good herbicidal activity is given at values of at least 85)
same,herbicidal activity against BRAPL found,[3]; Ia48 6.25 g/ha a.s.,60
same,herbicidal activity against COMBE found,[4]; Ia48 3.12 g/ha a.s.,60
same,herbicidal activity against BRADE found,[5]; Ia48 6.25 g/ha a.s.,85
same,herbicidal activity against ELEIN found,[9]; Ia48 3.12 g/ha a.s.,20
same,herbicidal activity against DIGSA found,[8]; Ia48 6.25 g/ha a.s.,65
same,herbicidal activity against SETVI found,[1]; Ia48 12.5 g/ha a.s.,95
same,herbicidal activity against ERICA found,[2]; Ia48 12.5 g/ha a.s.,90
same,herbicidal activity against Amaranthus retroflexus,[14],very good herbicidal activity (a very good herbicidal activity is given at values of at least 85)
same,herbicidal activity against Erigeron Canadensis,[15],very good herbicidal activity (a very good herbicidal activity is given at values of at least 85)
same,"damages, unwanted plants Pharbitis purpurea",[6],90
same,"damages, unwanted plants Setaria faberi",[7],98
same,herbicidal activity against Solanum nigrum,[16],very good herbicidal activity (a very good herbicidal activity is given at values of at least 85)
